The values below come from patent US20240335418A1, “SAFER PSYCHOACTIVE COMPOSITIONS” (Arcadia Medicine, Inc., priority 2021, published 2024).

Data set [1] can be described thus: Maximum Recommended Starting Dose (MRSD) and doses tested in humans. As to conditions: expected value.
The next data set has as its target CYP2D6 (Homo sapiens, UniProt P10635). As to conditions: cited from earlier work.
For a further data set, the target named is CYP2C19 (Homo sapiens, UniProt P33261). As to conditions: cited from earlier work.
A short description of data set [2]: Human Equivalent Dose (HED) of NOAEL. The note with it: for Human Equivalent Dose (HED): NOAEL (human), total dose / Human Equivalent Dose (HED): Neurotoxicology NOAEL (human), total dose: assuming a 60 kg human; for NOAEL: human, po.
A short description of data set [3]: No adverse effect level (NOAEL) in rat, p.o. As to conditions: in vivo, po.
For data set [4] the following is noted: cited from earlier work; for Fear behavior during the fear extinction session: during extinction training; for Conditioned fear when retention of extinction was assessed: the following day.
The conditions of data set [5]: rat, cited from earlier work.
The conditions of data set [6]: cited from earlier work.
For data set [7] the following is noted: mouse; cited from earlier work.
For data set [8] the following is noted: dog, p.o.; cited from earlier work.
For data set [9] the following is noted: p.o. in rat (SR(±)MDMA: with single housing); cited from earlier work.
The test system of data set [10] is serotonergic presynaptic markers. The note with it: primate study; cited from earlier work.
For data set [11] the following is noted: cited from earlier work. The source holds these as a separate data set.
For data set [12] the following is noted: dog, female and male, p.o.; cited from earlier work.
Data set [13] can be described thus: Subjective report: physiological and subjective effects after oral administration (Subject A). The data set is classed as in vivo, human. How it is done:
To determine the physiological and subjective effects of the hydrochloride salt of R-MDMA (oral administration, 250 (±) 10 mg), supplemented with acetyl-L-carnitine (ALCAR), alpha lipoic acid (ALA), ascorbate to reduce or prevent neurotoxicity.
2.2 g of racemic MDMA was obtained and dissolved in methanol at a stock concentration of 10 mg/mL. A ChiralPak Ad-H column (150×4.6 mm, 5 μm particle size) was flushed with mobile phase solution on an Agilent 1260 machine with a variable UV-Vis detector and 10 uL of the final concentrated solution (1:100) was injected on a 35 min run cycle. Due to the preliminary nature of the testing, no further characterization was done. The laevo-rich form was the first eluted. It was collected and roto-evaporated into solid form and then dried over magnesium pellets. The product, when dried and washed thoroughly, was sent out for anonymized 1H-NMR testing to determine identity.
Vitals were taken hourly, and were taken four times between hours two and three. Heart rate rose for a short period to 115-125 from 85 resting.
MDMA enantiomers were recombined in a 9:1 ratio through crystallization and washing.

[14] abbreviates: 100 mg, healthy volunteers, brain imaging studies.

By NOAEL is commonly meant the highest tested level that showed no adverse finding.

The structures appear in SMILES notation. “Also recorded” adds a separate entry of the source. Like-named read-outs stand apart in the source and are kept apart here.

Sequence of CYP2D6 (P10635 whole entry): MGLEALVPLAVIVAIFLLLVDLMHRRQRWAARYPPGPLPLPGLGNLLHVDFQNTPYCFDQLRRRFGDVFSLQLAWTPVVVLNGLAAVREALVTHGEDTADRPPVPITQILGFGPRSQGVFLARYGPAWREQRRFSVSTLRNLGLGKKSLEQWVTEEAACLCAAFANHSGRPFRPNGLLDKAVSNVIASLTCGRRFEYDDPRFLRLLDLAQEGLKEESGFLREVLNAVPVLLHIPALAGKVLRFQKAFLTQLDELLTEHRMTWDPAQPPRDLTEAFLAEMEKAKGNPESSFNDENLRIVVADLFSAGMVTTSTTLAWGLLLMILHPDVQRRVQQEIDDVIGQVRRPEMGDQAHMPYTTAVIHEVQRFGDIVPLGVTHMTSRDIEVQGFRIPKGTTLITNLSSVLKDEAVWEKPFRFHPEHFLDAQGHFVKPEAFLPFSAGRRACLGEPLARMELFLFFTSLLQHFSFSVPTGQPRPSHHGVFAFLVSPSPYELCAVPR
Sequence of CYP2C19 (P33261 whole entry): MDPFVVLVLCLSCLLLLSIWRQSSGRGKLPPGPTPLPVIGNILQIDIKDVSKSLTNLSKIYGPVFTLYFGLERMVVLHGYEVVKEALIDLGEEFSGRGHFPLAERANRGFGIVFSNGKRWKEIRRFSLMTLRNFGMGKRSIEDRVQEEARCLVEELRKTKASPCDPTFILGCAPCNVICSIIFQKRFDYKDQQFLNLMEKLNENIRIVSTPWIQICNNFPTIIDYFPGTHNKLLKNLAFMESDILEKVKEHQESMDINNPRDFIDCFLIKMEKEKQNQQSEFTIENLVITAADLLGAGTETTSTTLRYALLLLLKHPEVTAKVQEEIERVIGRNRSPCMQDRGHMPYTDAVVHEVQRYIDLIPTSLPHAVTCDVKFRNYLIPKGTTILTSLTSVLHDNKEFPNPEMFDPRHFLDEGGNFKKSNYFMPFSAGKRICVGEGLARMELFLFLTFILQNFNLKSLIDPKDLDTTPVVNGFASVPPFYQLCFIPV

In the case of `CN[C@@H](C)Cc1ccc2c(c1)OCO2` [S-MDMA, (S)-1-(1,3-Benzodioxol-5-yl)-N-methylpropan-2-amine], in data set [1], the “Expected MSRD” value worked out at 150 mg. Also, the “Affinity for CYP2D6 compared with the other enantiomer” value at CYP2D6 is recorded as “higher affinity”. Further, on CYP2C19, the “Metabolism by CYP2C19, enantiomer preference” value is listed as “preferentially metabolizes”. For the same compound, the “Human Equivalent Dose (HED): NOAEL (human), total dose” value in [2] (9:1 R:S MDMA: expected, p.o.) is given as “mg/kg → <2080”. For the same compound, in data set [2] (9:1 R:S MDMA: i.v.), the “Human Equivalent Dose (HED): Neurotoxicology NOAEL (human), total dose” value stood at 342.9 mg*. Also, the NOAEL in data set [2] was < 34 mg/kg; in data set [3], < 100 mg/kg. The “Fear behavior during the fear extinction session” value in data set [4] is listed as “reduced conditioned fear behavior”. In addition, in data set [4], the “Conditioned fear when retention of extinction was assessed” value is recorded as “a reduction thereof was not observed”. Also, in data set [5] (i.v.), the “Neurotoxicology NOAEL” value is 20 mg/kg i.v2,3.

Consider `CNC(C)Cc1ccc2c(c1)OCO2` (stereo not drawn) [MDMA, 3,4-methylenedioxymethamphetamine], for which, in data set [2] (9:1 R:S MDMA: expected, p.o.), the “Human Equivalent Dose (HED): NOAEL (human)” value is 34 mg/kg → and the “Human Equivalent Dose (HED): NOAEL (human), total dose” value amounted to 2080 mg. For the same compound, in data set [2] (9:1 R:S MDMA: i.v.), the “Human Equivalent Dose (HED): Neurotoxicology NOAEL (human)” value is “NOAEL (human): 6 mg/kg” and the “Human Equivalent Dose (HED): Neurotoxicology NOAEL (human), total dose” value worked out at 342.9 mg*. Also, in data set [6] (doses ranging from 50-125 mg), the Elimination half-life was 7 to 9 h. Moreover, in data set [6] (humans, doses 100-125 mg), the “Time to peak plasma concentration” value is 2 to 3 h. Besides, in data set [7], the Critical period peak is 40 h and the “Critical period starts to open, time after the acute dose” value is listed as “about six”. Also, the “Neurotoxicology NOAEL” value in data set [5] (female, p.o.) is listed as 25 mg/kg/week p.o1. Moreover, in data set [5] (male, p.o.), the “Neurotoxicology NOAEL” value was 20 mg/kg/week p.o1. For the same compound, the “No adverse effect level (NOAEL)” value in data set [8] is reported as “NOAEL: 15 mg/kg in”. Further, the “No adverse effect level (NOAEL)” value in [9] is “NOAEL: 100 mg/kg”. In data set [10], the Serotonergic presynaptic markers result was “profound reductions in all three serotonergic presynaptic markers”. In [11] (setting [14]), the “Duration of subjective effects” value is listed as “approximately 4.5 hours” and the “Time of peak subjective effects” value was 100 min. Besides, the Duration of effects in [11] (patients with PTSD receiving one dose) was 4 to 5 h. For the same compound, in data set [11] (patients with PTSD, 100-125 mg), the “Onset of action after the initial dose” value is 45 to 75 min and the “Time of peak drug effects” value was 2 to 5 h. Also, the Duration of effects in data set [11] (patients with PTSD, with the booster dose) is 5 to 6 h. Further, in data set [11] (prior study (Harris et al.)), the “Decrease of subjective effects to baseline values” was 5 to 6 h, the “Onset of subjective effects” value is given as “approximately 45 mins” and the “Peak of subjective effects” value is 1.5 to 2 h. Further, the “Neurotoxicology NOAEL” value in [12] was 4 mg/kg/week p.o.

In the case of `CN[C@H](C)Cc1ccc2c(c1)OCO2` [R-MDMA, (R)-1-(1,3-Benzodioxol-5-yl)-N-methylpropan-2-amine], the “Human Equivalent Dose (HED): NOAEL (human), total dose” value in [2] (9:1 R:S MDMA: expected, p.o.) is recorded as “mg/kg → >4100”. For the same compound, the “Human Equivalent Dose (HED): Neurotoxicology NOAEL (human), total dose” value in [2] (9:1 R:S MDMA: i.v.) stood at 450 mg*. Besides, the NOAEL in data set [2] was > 68 mg/kg. In addition, in data set [6] (in vivo), the “AUC in comparison to S-MDMA” value is reported as “increased AUC” and the “Half-life in comparison to S-MDMA” value was “longer half-life”. Further, in [4], the “Fear behavior during the fear extinction session” value is given as “did not reduce fear behavior” and the “Conditioned fear when retention of extinction was assessed” value is “significantly reduced conditioned fear”. Also, in data set [5] (i.v.), the “Neurotoxicology NOAEL” value is given as 50 mg/kg i.v2. Moreover, the “No adverse effect level (NOAEL)” value in data set [9] is on record as “NOAEL: >200 mg/kg”. In [13] (R-MDMA HCl 250 (±) 10 mg oral), the “Duration of the whole experience” value is reported as “approximately 7 hours”; the “Peak of the experience, time after ingestion” value is listed as “around two”; the Start of come-down is ~4 h; the “Start of noticeable effects off-baseline” value is “around 40 minutes”. For the same compound, the Blood pressure result in [13] (R-MDMA HCl 250 (±) 10 mg oral, monitor of low precision, result inconclusive) was “increased for a short period”. In [13] (single oral dose, Subject A), the Hyperthermia or hypothermia result is recorded as “No noticeable hyperthermia or hypothermia”, the Jaw clenching entry is “No incidence of jaw clenching” and the “Stimulant effects compared with racemic MDMA” value is given as “almost entirely absent; also recorded: reduction in stimulation”. For the same compound, in data set [13] (single oral dose, Subject A, R-MDMA HCl 250 (±) 10 mg with supplements (rise from 85 resting), 9:1 R:S MDMA 230-240 mg), the Heart rate is reported as 115-125.
